Experimental data from US20230167073A1 (Teijin Pharma Limited, priority 2020, published 2023).

target: T1, Human TRPC6 (Homo sapiens, UniProt Q9Y210); experiment: Evaluation of TRPC6 channel inhibitory activity (1), FLIPR Calcium 5 Assay Kit, OAG stimulation (Compound Nos. 1-1293); format: cell-based; details: Human TRPC6 stably-expressing cells, OAG 30 μM, FLIPR Calcium 5 Assay Kit; read-out: Inhibitory activity (pIC50 class) (converted)
T1 construct: expressed in transfected cells
T1 sequence (Q9Y210 1-931): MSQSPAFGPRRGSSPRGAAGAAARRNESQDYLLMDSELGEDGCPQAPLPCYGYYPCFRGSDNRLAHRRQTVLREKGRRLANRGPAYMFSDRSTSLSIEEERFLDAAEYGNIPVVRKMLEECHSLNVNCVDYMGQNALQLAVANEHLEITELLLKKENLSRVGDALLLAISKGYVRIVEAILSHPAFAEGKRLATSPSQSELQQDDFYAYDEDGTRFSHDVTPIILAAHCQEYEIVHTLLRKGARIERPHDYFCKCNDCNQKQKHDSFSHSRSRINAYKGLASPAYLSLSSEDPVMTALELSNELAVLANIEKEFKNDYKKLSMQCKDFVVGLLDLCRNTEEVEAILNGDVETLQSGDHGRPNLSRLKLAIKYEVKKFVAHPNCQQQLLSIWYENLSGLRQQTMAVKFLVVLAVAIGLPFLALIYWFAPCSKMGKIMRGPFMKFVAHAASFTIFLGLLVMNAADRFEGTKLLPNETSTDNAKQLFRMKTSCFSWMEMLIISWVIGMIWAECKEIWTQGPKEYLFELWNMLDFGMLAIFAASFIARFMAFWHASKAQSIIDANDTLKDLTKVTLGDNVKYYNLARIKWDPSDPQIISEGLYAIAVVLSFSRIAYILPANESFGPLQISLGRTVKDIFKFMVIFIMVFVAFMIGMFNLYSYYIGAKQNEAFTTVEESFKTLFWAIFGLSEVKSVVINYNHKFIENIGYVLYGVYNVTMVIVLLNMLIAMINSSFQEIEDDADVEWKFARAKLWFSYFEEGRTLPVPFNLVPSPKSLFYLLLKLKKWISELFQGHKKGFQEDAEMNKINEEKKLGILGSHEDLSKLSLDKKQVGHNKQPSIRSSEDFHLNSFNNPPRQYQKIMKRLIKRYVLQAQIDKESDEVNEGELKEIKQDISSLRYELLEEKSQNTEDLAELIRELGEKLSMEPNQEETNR
In short: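 The FLIPR signal is maximum fluorescence after 30 μM OAG minus minimum before compound, measured in a human TRPC6 stable line loaded with Calcium 5 dye. Compounds were preincubated 20 min. pIC50 came from four-parameter logistic fitting of inhibition rates and is given as symbol ranges.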

Structure (SMILES) | IC50
Cc1ccc(-c2cc(Oc3cc(C#N)ccc3-c3ncc(CCN)cn3)cc(C)n2)nn1 [compound 466, 4-[5-(2-aminoethyl)pyrimidin-2-yl]-3-[2-methyl-6-(6-methylpyridazin-3-yl)pyridin-4-yl]oxybenzonitrile] | > 1000 nM
Cc1nc(Oc2cc(C#N)ccc2-c2ncc(CN)cn2)cc(N2CCOCC2)n1 [compound 467, 4-[5-(aminomethyl)pyrimidin-2-yl]-3-(2-methyl-6-morpholin-4-ylpyrimidin-4-yl)oxybenzonitrile] | < 10 nM
Cc1cc(Oc2cc(C#N)ccc2-c2ncc(CCN)cn2)cc(N2CCOC[C@H]2C)n1 [compound 470, 4-[5-(2-aminoethyl)pyrimidin-2-yl]-3-[2-methyl-6-[(3R)-3-methylmorpholin-4-yl]pyridin-4-yl]oxybenzonitrile] | < 10 nM
Cc1cc(Oc2cc(C#N)ccc2-c2ncc(CCN)cn2)cc(N2CCOC[C@@H]2C)n1 [compound 471, 4-[5-(2-aminoethyl)pyrimidin-2-yl]-3-[2-methyl-6-[(3S)-3-methylmorpholin-4-yl]pyridin-4-yl]oxybenzonitrile] | < 10 nM
Cc1cc(Oc2cc(C#N)ccc2-c2ncc(CCN)cn2)cc(OCC2CCO2)n1 (stereo not shown) [compound 473, 4-[5-(2-aminoethyl)pyrimidin-2-yl]-3-[2-methyl-6-(oxetan-2-ylmethoxy)pyridin-4-yl]oxybenzonitrile] | 10 to 1000 nM
Cc1nc(Oc2cc(C#N)ccc2-c2ncc(CN)cn2)cc(-c2ccc(F)cn2)n1 [compound 474, 4-[5-(aminomethyl)pyrimidin-2-yl]-3-[6-(5-fluoropyridin-2-yl)-2-methylpyrimidin-4-yl]oxybenzonitrile] | > 1000 nM
Cc1cc(Oc2cc(C#N)ccc2-c2ncc(CC(C)(C)N)cn2)cc(N2CCOCC2)n1 [compound 476, 4-[5-(2-amino-2-methylpropyl)pyrimidin-2-yl]-3-(2-methyl-6-morpholin-4-ylpyridin-4-yl)oxybenzonitrile] | 10 to 1000 nM
Cn1nc(C2CC2)cc1Oc1cc(C#N)ccc1-c1ncc(CC(C)(C)N)cn1 [compound 477, 4-[5-(2-amino-2-methylpropyl)pyrimidin-2-yl]-3-(5-cyclopropyl-2-methylpyrazol-3-yl)oxybenzonitrile] | < 10 nM
Cn1nc(C2CCCO2)cc1Oc1cc(C#N)ccc1-c1ncc(CCN)cn1 (stereo not shown) [compound 483, 4-[5-(2-aminoethyl)pyrimidin-2-yl]-3-[2-methyl-5-(oxolan-2-yl)pyrazol-3-yl]oxybenzonitrile] | < 10 nM
COCCOc1cc(Oc2cc(C#N)ccc2-c2ncc(CCN)cn2)cc(C)n1 [compound 492, 4-[5-(2-aminoethyl)pyrimidin-2-yl]-3-[2-(2-methoxyethoxy)-6-methylpyridin-4-yl]oxybenzonitrile] | 10 to 1000 nM
Cc1cc(Oc2cc(C#N)ccc2-c2ccc(CN)n3ccnc23)cc(N2CCOCC2)n1 [compound 494, 4-[5-(aminomethyl)imidazo[1,2-a]pyridin-8-yl]-3-(2-methyl-6-morpholin-4-ylpyridin-4-yl)oxybenzonitrile] | 10 to 1000 nM
Cn1nc(C2CCOC2)cc1Oc1cc(C#N)ccc1-c1ncc(CCN)cn1 (stereo not shown) [compound 495, 4-[5-(2-aminoethyl)pyrimidin-2-yl]-3-[2-methyl-5-(oxolan-3-yl)pyrazol-3-yl]oxybenzonitrile] | 10 to 1000 nM
Cc1c(CN2CCN[C@@H](C)C2)cc(-c2ccc(C#N)cc2Oc2cc(C3CC3)nn2C)c2nccn12 [compound 497, 3-(5-cyclopropyl-2-methylpyrazol-3-yl)oxy-4-[5-methyl-6-[[(3S)-3-methylpiperazin-1-yl]methyl]imidazo[1,2-a]pyridin-8-yl]benzonitrile] | > 1000 nM

The remaining lines, values ahead:

IC50 | Structure (SMILES)
> 1000 nM | Cn1nc(C2CC2)cc1Oc1cc(C#N)ccc1-c1cc(N)nc2ccnn12 [compound 468, 4-(5-aminopyrazolo[1,5-a]pyrimidin-7-yl)-3-(5-cyclopropyl-2-methylpyrazol-3-yl)oxybenzonitrile]
< 10 nM | Cn1nc(-c2ccccc2)cc1Oc1cc(C#N)ccc1-c1ccc(C(N)CO)cn1 (stereo not shown) [compound 469, 4-[5-(1-amino-2-hydroxyethyl)pyridin-2-yl]-3-(2-methyl-5-phenylpyrazol-3-yl)oxybenzonitrile]
10 to 1000 nM | Cc1nc(Oc2cc(C#N)ccc2-c2ncc(CN)cn2)cc(-c2ccccn2)n1 [compound 472, 4-[5-(aminomethyl)pyrimidin-2-yl]-3-(2-methyl-6-pyridin-2-ylpyrimidin-4-yl)oxybenzonitrile]
> 1000 nM | Cn1nc(C2CC2)cc1Oc1cc(C#N)ccc1-c1cccc2nc(N)nn12 [compound 475, 4-(2-amino-[1,2,4]triazolo[1,5-a]pyridin-5-yl)-3-(5-cyclopropyl-2-methylpyrazol-3-yl)oxybenzonitrile]
10 to 1000 nM | Cc1cc(Oc2cc(C#N)ccc2-c2ccc([C@H](O)CN)cn2)cc(OCC2CCCO2)n1 (stereo partly drawn) [compound 478, 4-[5-[(1S)-2-amino-1-hydroxyethyl]pyridin-2-yl]-3-[2-methyl-6-(oxolan-2-ylmethoxy)pyridin-4-yl]oxybenzonitrile]
> 1000 nM | Cc1cc(Oc2cc(C#N)ccc2-c2ccc([C@H](O)CN)cn2)cc(OCCOC(C)C)n1 [compound 479, 4-[5-[(1S)-2-amino-1-hydroxyethyl]pyridin-2-yl]-3-[2-methyl-6-(2-propan-2-yloxyethoxy)pyridin-4-yl]oxybenzonitrile]
> 1000 nM | Cn1nc(C2CC2)cc1Oc1cc(C#N)ccc1-c1cccc(CN)n1 [compound 480, 4-[6-(aminomethyl)pyridin-2-yl]-3-(5-cyclopropyl-2-methylpyrazol-3-yl)oxybenzonitrile]
> 1000 nM | Cn1nc(C2CC2)cc1Oc1cc(C#N)ccc1-c1cccc(CCN)n1 [compound 481, 4-[6-(2-aminoethyl)pyridin-2-yl]-3-(5-cyclopropyl-2-methylpyrazol-3-yl)oxybenzonitrile]
< 10 nM | Cn1nc(C2CC2)cc1Oc1cc(C#N)ccc1-c1cc(CCN)ccn1 [compound 482, 4-[4-(2-aminoethyl)pyridin-2-yl]-3-(5-cyclopropyl-2-methylpyrazol-3-yl)oxybenzonitrile]
< 10 nM | Cn1nc(C2CCCO2)cc1Oc1cc(C#N)ccc1-c1ccc(CCN)cn1 (stereo not shown) [compound 484, 4-[5-(2-aminoethyl)pyridin-2-yl]-3-[2-methyl-5-(oxolan-2-yl)pyrazol-3-yl]oxybenzonitrile]
< 10 nM | Cn1nc(N2CCOCC2)cc1Oc1cc(C#N)ccc1-c1ccc(CCN)cn1 [compound 485, 4-[5-(2-aminoethyl)pyridin-2-yl]-3-(2-methyl-5-morpholin-4-ylpyrazol-3-yl)oxybenzonitrile]
> 1000 nM | Cn1nc(C2CC2)cc1Oc1cc(C#N)ccc1-c1ccc(C(N)C(=O)N2CCCCC2)cn1 (stereo not shown) [compound 486, 4-[5-(1-amino-2-oxo-2-piperidin-1-ylethyl)pyridin-2-yl]-3-(5-cyclopropyl-2-methylpyrazol-3-yl)oxybenzonitrile]
> 1000 nM | CCN(CC)C(=O)C(N)c1ccc(-c2ccc(C#N)cc2Oc2cc(C3CC3)nn2C)nc1 (stereo not shown) [compound 488, 2-amino-2-[6-[4-cyano-2-(5-cyclopropyl-2-methylpyrazol-3-yl)oxyphenyl]pyridin-3-yl]-N,N-diethylacetamide]
> 1000 nM | CN(C)C(=O)C(N)c1ccc(-c2ccc(C#N)cc2Oc2cc(C3CC3)nn2C)nc1 (stereo not shown) [compound 489, 2-amino-2-[6-[4-cyano-2-(5-cyclopropyl-2-methylpyrazol-3-yl)oxyphenyl]pyridin-3-yl]-N,N-dimethylacetamide]
> 1000 nM | CC(C)NC(=O)C(N)c1ccc(-c2ccc(C#N)cc2Oc2cc(C3CC3)nn2C)nc1 (stereo not shown) [compound 490, 2-amino-2-[6-[4-cyano-2-(5-cyclopropyl-2-methylpyrazol-3-yl)oxyphenyl]pyridin-3-yl]-N-propan-2-ylacetamide]
10 to 1000 nM | CNC(=O)C(N)c1ccc(-c2ccc(C#N)cc2Oc2cc(C3CC3)nn2C)nc1 (stereo not shown) [compound 491, 2-amino-2-[6-[4-cyano-2-(5-cyclopropyl-2-methylpyrazol-3-yl)oxyphenyl]pyridin-3-yl]-N-methylacetamide]
< 10 nM | Cn1nc(C2CC2)cc1Oc1cc(C#N)ccc1-c1ccc(CN)n2ccnc12 [compound 493, 4-[5-(aminomethyl)imidazo[1,2-a]pyridin-8-yl]-3-(5-cyclopropyl-2-methylpyrazol-3-yl)oxybenzonitrile]
< 10 nM | Cn1nc(C2CCOC2)cc1Oc1cc(C#N)ccc1-c1ccc(CCN)cn1 (stereo not shown) [compound 496, 4-[5-(2-aminoethyl)pyridin-2-yl]-3-[2-methyl-5-(oxolan-3-yl)pyrazol-3-yl]oxybenzonitrile]
